{"source": "paper PMC8950995", "about": "“Identification and Functional Analysis of Glutathione S-Transferases from Sitophilus zeamais in Olfactory Organ” (Insects, 2022)", "target": "T1, SzeaGSTd1 (Sitophilus zeamais, UniProt A0A8F0D7V2)", "T1 sequence (A0A8F0D7V2 22-247)": "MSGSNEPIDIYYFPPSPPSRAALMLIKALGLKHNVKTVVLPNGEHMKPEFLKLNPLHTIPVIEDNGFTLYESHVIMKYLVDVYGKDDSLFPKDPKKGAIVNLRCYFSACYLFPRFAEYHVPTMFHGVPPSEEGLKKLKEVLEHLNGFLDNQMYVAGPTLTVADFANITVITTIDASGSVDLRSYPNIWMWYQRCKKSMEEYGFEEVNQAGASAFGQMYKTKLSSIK", "assay": "GSH conjugation, absorbance at […] nm, Michaelis-Menten", "format": "biochemical", "details": "1 mM GSH, 100 mM phosphate pH 7.2"}
{"smiles": "O=[N+]([O-])c1ccc(Cl)c([N+](=O)[O-])c1", "note": "[CDNB, 1-chloro-2,4-dinitrobenzene]", "values": [{"measurement": "Km", "result": "420 ± 40", "unit": "µM"}]}
